Test results: patent US6812245B2, “Polycylic xanthones and their use” (Instituto Biomar S.A., priority 2000, dated 2004)

Legend:
Assay type in all cases: cell-based
[1] = tested on: mouse leukaemia P-388; test: in vitro antitumour activity in cell cultures, mouse leukaemia P-388; settings: P388; mouse leukaemia P-388 cell culture
Protocol: (§1) The antitumour activities of IB-00208 have been determined in vitro in cell cultures of mouse leukaemia P-388, human lung carcinoma A-549, human colon carcinoma HT-29 and human melanoma MEL-28. The procedure was carried out using the methodology described by Bergeron et al. The IC50 found was of 0.001, 0.001, 0.001, and 0.001 μg/ml for all 4 cell lines.

[2] = tested on: human lung carcinoma A-549; test: in vitro antitumour activity in cell cultures, human lung carcinoma A-549; settings: A549; human lung carcinoma A-549 cell culture
Protocol: as §1

[3] = tested on: human colon carcinoma HT-29; test: in vitro antitumour activity in cell cultures, human colon carcinoma HT-29; settings: human colon carcinoma HT-29 cell culture
Protocol: as §1

[4] = tested on: human melanoma MEL-28; test: in vitro antitumour activity in cell cultures, human melanoma MEL-28; settings: SK-MEL-28; human melanoma MEL-28 cell culture
Protocol: as §1

Measured: IC50

COc1ccc(OC)c2c(=O)c3c(oc12)C(=O)c1ccc2c(OC4OC(C)C(OC)C(OC)C4OC)c4c(c(O)c2c1C3=O)C(=O)OC(C)C4 (stereo not shown) [IB-00208]
1 ng/mL: all assays above
